What was measured:
Format in all cases: cell-based
[1] = tested on: HCT-116 colorectal cancer cell line; test: CCK-8 proliferation inhibition; conditions: Homo sapiens, HCT-116, 72 h, concentration of 30 μM; 72 hours; CCK-8; read-out: HCT116 inhibition rate/%
Method in brief: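 Viability read-out: 1:10 diluted CCK-8 after 72 h compound exposure at 37 °C, 5% CO2. Cells (2000/well, McCoy's 5A plus 10% newborn bovine serum) pre-cultured overnight; vehicle control 1‰ DMSO.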

[2] = tested on: Escherichia coli (including ESBLs, non-ESBLs); test: MIC, two-fold agar dilution (CLSI), clinical isolates
Method in brief: (§1)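 Samples are serially diluted two-fold in agar following CLSI guidance. Plates are then inoculated with the tested strains. The lowest inhibiting concentration is recorded as MIC.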

[3] = tested on: Enterococcus faecalis (EFA); test: as above
Method in brief: as §1

[4] = tested on: methicillin-sensitive Staphylococcus epidermidis (MSSE); test: as above
Method in brief: as §1

[5] = tested on: Streptococcus pneoumoniae (SPN); test: as above
Method in brief: as §1

[6] = tested on: Enterococcus faecium (EFM); test: as above
Method in brief: as §1

[7] = tested on: methicillin-resistant Staphylococcus aureus (MRSA); test: as above
Method in brief: as §1

[8] = tested on: methicillin-sensitive Staphylococcus aureus (MSSA); test: as above
Method in brief: as §1

[9] = tested on: methicillin-resistant Staphylococcus epidermidis (MRSE); test: as above
Method in brief: as §1

[10] = tested on: Moraxella catarrhalis (BCA); test: as above
Method in brief: as §1

SMILES: CCCC[C@H](CC(=O)NO)C(=O)N1CC2(CC2)C[C@H]1C(=O)NC1CC1 [Example 50, (S)—N-cyclopropyl-5-((R)-2-(2-(hydroxyamino)-2-oxoethyl)hexanoyl)-5-azaspiro[2.4]heptane-6-carboxamide]
- inhibition at 30 µM [1]: -11%
- Anti-bacterial activity (MIC), strain ECO+ 15-1 ([2]; clinical isolate ECO+ 15-1): > 32 µg/mL
- Anti-bacterial activity (MIC), strain ECO+ 15-2 ([2]; clinical isolate ECO+ 15-2): > 32 µg/mL
- Anti-bacterial activity (MIC), strain ECO+ 15-3 ([2]; clinical isolate ECO+ 15-3): > 32 µg/mL
- Anti-bacterial activity (MIC), strain ECO+ 15-4 ([2]; clinical isolate ECO+ 15-4): > 32 µg/mL
- Anti-bacterial activity (MIC), strain ECO− 15-1 ([2]; clinical isolate ECO− 15-1): > 32 µg/mL
- Anti-bacterial activity (MIC), strain ECO− 15-2 ([2]; clinical isolate ECO− 15-2): > 32 µg/mL
- Anti-bacterial activity (MIC), strain ECO− 15-3 ([2]; clinical isolate ECO− 15-3): > 32 µg/mL
- Anti-bacterial activity (MIC), strain ECO− 15-4 ([2]; clinical isolate ECO− 15-4): > 32 µg/mL
- Anti-bacterial activity (MIC), strain EFA 15-1 ([3]; clinical isolate EFA 15-1): > 32 µg/mL
- Anti-bacterial activity (MIC), strain EFA 15-2 ([3]; clinical isolate EFA 15-2): > 32 µg/mL
- Anti-bacterial activity (MIC), strain EFA 15-3 ([3]; clinical isolate EFA 15-3): > 32 µg/mL
- Anti-bacterial activity (MIC), strain EFA 15-4 ([3]; clinical isolate EFA 15-4): > 32 µg/mL
- Anti-bacterial activity (MIC), strain EFA 15-5 ([3]; clinical isolate EFA 15-5): > 32 µg/mL
- Anti-bacterial activity (MIC), strain EFA 15-6 ([3]; clinical isolate EFA 15-6): > 32 µg/mL
- Anti-bacterial activity (MIC), strain EFA 15-9 ([3]; clinical isolate EFA 15-9): > 32 µg/mL
- Anti-bacterial activity (MIC), strain MSSE 15-3 ([4]; clinical isolate MSSE 15-3): > 32 µg/mL
- Anti-bacterial activity (MIC), strain MSSE 15-4 ([4]; clinical isolate MSSE 15-4): > 32 µg/mL
- Anti-bacterial activity (MIC), strain MSSE 15-5 ([4]; clinical isolate MSSE 15-5): > 32 µg/mL
- Anti-bacterial activity (MIC), strain MSSE 15-6 ([4]; clinical isolate MSSE 15-6): > 32 µg/mL
- Anti-bacterial activity (MIC), strain SPN 16-2 ([5]; clinical isolate SPN 16-2): > 32 µg/mL
- Anti-bacterial activity (MIC), strain SPN 16-4 ([5]; clinical isolate SPN 16-4): > 32 µg/mL
- Anti-bacterial activity (MIC), strain EFM 15-1 ([6]; clinical isolate EFM 15-1): > 32 µg/mL
- Anti-bacterial activity (MIC), strain EFM 15-2 ([6]; clinical isolate EFM 15-2): > 32 µg/mL
- Anti-bacterial activity (MIC), strain EFM 15-3 ([6]; clinical isolate EFM 15-3): > 32 µg/mL
- Anti-bacterial activity (MIC), strain EFM 15-4 ([6]; clinical isolate EFM 15-4): > 32 µg/mL
- Anti-bacterial activity (MIC), strain EFM 15-5 ([6]; clinical isolate EFM 15-5): > 32 µg/mL
- Anti-bacterial activity (MIC), strain EFM 15-6 ([6]; clinical isolate EFM 15-6): > 32 µg/mL
- Anti-bacterial activity (MIC), strain MRSA 15-1 ([7]; clinical isolate MRSA 15-1): > 23 µg/mL
- Anti-bacterial activity (MIC), strain MRSA 15-2 ([7]; clinical isolate MRSA 15-2): > 32 µg/mL
- Anti-bacterial activity (MIC), strain MRSA 15-3 ([7]; clinical isolate MRSA 15-3): > 32 µg/mL
- Anti-bacterial activity (MIC), strain MRSA 15-4 ([7]; clinical isolate MRSA 15-4): > 32 µg/mL
- Anti-bacterial activity (MIC), strain MSSA 15-3 ([8]; clinical isolate MSSA 15-3): > 32 µg/mL
- Anti-bacterial activity (MIC), strain MSSA 15-4 ([8]; clinical isolate MSSA 15-4): > 32 µg/mL
- Anti-bacterial activity (MIC), strain MSSA 15-5 ([8]; clinical isolate MSSA 15-5): > 32 µg/mL
- Anti-bacterial activity (MIC), strain MSSA 15-6 ([8]; clinical isolate MSSA 15-6): > 32 µg/mL
- Anti-bacterial activity (MIC), strain MRSE 15-1 ([9]; clinical isolate MRSE 15-1): > 32 µg/mL
- Anti-bacterial activity (MIC), strain MRSE 15-2 ([9]; clinical isolate MRSE 15-2): > 32 µg/mL
- Anti-bacterial activity (MIC), strain MRSE 15-3 ([9]; clinical isolate MRSE 15-3): > 32 µg/mL
- Anti-bacterial activity (MIC), strain MRSE 15-7 ([9]; clinical isolate MRSE 15-7): > 32 µg/mL
- Anti-bacterial activity (MIC), strain BCA 14-1 ([10]; clinical isolate BCA 14-1): > 32 µg/mL
- Anti-bacterial activity (MIC), strain BCA 14-4 ([10]; clinical isolate BCA 14-4): > 32 µg/mL
- Anti-bacterial activity (MIC), strain BCA 14-5 ([10]; clinical isolate BCA 14-5): > 32 µg/mL
- Anti-bacterial activity (MIC), strain BCA 14-6 ([10]; clinical isolate BCA 14-6): > 32 µg/mL
- Anti-bacterial activity (MIC), strain BCA 14-7 ([10]; clinical isolate BCA 14-7): > 32 µg/mL
- Anti-bacterial activity (MIC), strain BCA 14-8 ([10]; clinical isolate BCA 14-8): > 32 µg/mL
- Anti-bacterial activity (MIC), strain BCA 14-10 ([10]; clinical isolate BCA 14-10): > 32 µg/mL

Source: patent US10738028B2, “Spiro three-membered ring, spiro five-membered ring peptide deformylase inhibitor and use thereof in antibacteria and anti-tumor” (priority 2016, dated 2020)
